# Paper PMC9964746, “Mechanism of Action and Structure–Activity Relationships of Tetracyclic Small Molecules Acting as Universal Positive Allosteric Modulators of the Cholecystokinin Receptor” (Membranes, 2023)
# Several values for one entry are separate records, joined by “and”; a condition that tells them apart may be missing. Equal values may be shown once.
# Legend:
# Type in all cases: cell-based
# [1] = target: T1, vasopressin-2 receptor (AVP2R) (Homo sapiens, UniProt P30518); test: AVP2R cAMP HTRF accumulation assay; conditions: for AVP2R PAM (cAMP) Score (activity score = normalized Emax × pEC50) / EC50 / Emax: CHO-K1 AVP2R cells; for EC50 / Emax: PAM format with vasopressin, original hits: agonist and PAM data combined, average ± SD
# T1 construct: expressed in transfected cells; host or cells: CHO-K1 (PAM format); HEK-293 (agonist format)
# Description: Possible off-target biological effects. […] Here, we tested them at the vasopressin-2 receptor (AVP2R), representing a class A GPCR structurally related to CCK1R, which is coupled to Gs. The activity at AVP2R was tested using AVP2R-overexpressing CHO-K1 (PAM format) or HEK-293 (agonist format) cells, stimulating the cells with vasopressin. Original hits were tested in both agonist and PAM formats. Since all recognized compound responses were present in both formats, we continued to screen analogs in only the PAM format (also able to capture agonist effects) in CHO-K1 AVP2R cells for potential enhanced sensitivity. The dose–response data sets for original hits were combined, as the PAM and agonist effects were indistinguishable. In brief, arginine vasopressin (AVP) orthosteric stimulator dilutions and ligand and compound dose–response titrations in DMSO were transferred onto a 1536-well plate (Corning #3725) using an Echo liquid handler (Labcyte). Thawed cryopreserved cell stocks were diluted in stimulation buffer consisting of HBSS (Hank’s Balanced Salt Solution with Ca^2+ and Mg^2+, Gibco #24020117), 5 mM HEPES (hydroxyethyl piperazineethanesulfonic acid), 0.5 mM IBMX (3-isobutyl-1-methylxanthine, Sigma-Aldrich), and 0.075% BSA (7.5% DTPA-purified bovine serum albumin, PerkinElmer). The resulting cell suspension was added to the microplate and incubated with test compounds at room temperature for 30 min. Then, the detection reagents from the Cisbio cAMP Gs Dynamic HTRF detection kit were added. The plate was kept at room temperature for 30 min and read on a PHERAstar FSX microplate reader. Dose–response curves were performed as 16-point 2-fold dilutions in duplicate in at least two independent experiments.
# CCK1R [2] = target: T2, CCK1R (Homo sapiens, UniProt P32238); test: IP-One accumulation TR-FRET assay, PAM format, HEK-293 CCK1R cells; design: expressed in transfected cells; host or cells: HEK-293; conditions: for Emax: HEK293, relative to CCK control; for Emax / CCK1R PAM (IP-One) Score (activity score = normalized Emax × pEC50) / EC50: HEK-293 CCK1R cells; for Emax / CCK1R PAM (IP-One) Score (activity score = normalized Emax × pEC50): PAM format; for Emax / EC50: average ± SD; for EC50: PAM format with EC20 CCK; for CCK1R IP-One activity (in words): PAM and agonist formats
# T2 sequence (P32238 1-428): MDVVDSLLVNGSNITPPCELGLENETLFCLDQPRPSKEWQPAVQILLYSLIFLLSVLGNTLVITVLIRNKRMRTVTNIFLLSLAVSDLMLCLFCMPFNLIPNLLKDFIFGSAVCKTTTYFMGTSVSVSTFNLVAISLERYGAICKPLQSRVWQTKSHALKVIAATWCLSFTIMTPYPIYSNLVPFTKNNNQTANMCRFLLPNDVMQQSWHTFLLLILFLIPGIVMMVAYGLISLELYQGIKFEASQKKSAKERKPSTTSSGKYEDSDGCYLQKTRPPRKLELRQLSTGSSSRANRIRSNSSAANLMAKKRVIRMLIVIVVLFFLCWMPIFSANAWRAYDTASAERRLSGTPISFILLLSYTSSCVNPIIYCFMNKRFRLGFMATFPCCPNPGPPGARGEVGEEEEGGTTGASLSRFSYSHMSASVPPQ
# Description: (§1) For structure–activity relationship studies, we performed myo-inositol-1-phosphate (IP-One) accumulation assays with TR-FRET technology applied to the HEK-293 cell line overexpressing CCK1Rs, as we had described in our high throughput screening effort. In brief, thawed cryopreserved cell stocks were re-suspended in IP-One assay media consisting of phenol-red free DMEM (Corning, Corning, NY, USA, #17-205-CV) with 10% FBS, 1% penicillin (10,000 units)/streptomycin (10 mg) (Pen/Strep, Thermo Fisher Scientific, Waltham, MA, USA, Gibco #15140122), and 1% L-glutamine (200 mM) (Gibco #25030081) and diluted to required cell densities. Then, the cell suspension was dispensed into a 1536-well tissue culture microplate (Corning, #3727), and the plate was incubated overnight at 37 °C and 5% CO^2. After 16–20 h, DMSO or compounds were added with an Echo liquid handler (Labcyte, San Jose, CA, USA), resulting in a top final compound concentration of 50 µM diluted 2-fold for 16-point dose–responses. For the positive allosteric modulator (PAM) format, orthosteric stimulator (CCK) dilutions for control wells were prepared in assay media containing 150 mM lithium chloride (LiCl, 50 mM final, Sigma-Aldrich, St Louis, MO, USA, #L7026). After a 30 min incubation of test compounds at 37 °C and 5% CO2, orthosteric stimulator dilutions (for PAM format) or equivalent dilutions of DMSO (for agonist format) were added to designated wells using BioRaptr (Beckman Coulter, Brea, CA, USA). In addition, CCK control ligand dilutions were included on each test plate. After that, the plate was incubated for 1 h at 37 °C and 5% CO^2 and equilibrated to room temperature. Detection reagents from the IP-One Gq detection kit from Cisbio (Cisbio US Inc., Bedford, MA, USA, #62IPAPEJ) were added, and after 1 h at RT, IP-One content was measured with a PHERAstar FSX microplate reader (BMG Labtech, Ortenberg, Germany). Control ligand dose–responses were analyzed using GraphPad Prism 9.3.1 (San Diego, CA, USA) to validate adequate control and test well concentrations for positive allosteric modulation (PAM) and agonist formats. Dose–response curves were performed as 16-point 2-fold dilutions in duplicates in at least three independent experiments. Large data sets were uploaded and analyzed with CBIS (Chemical and Biology Information System software, ChemInnovation Software, Inc., San Diego, CA, USA). Further data analysis for detailed SAR studies was conducted using the D360 software (Certara).
# (§2) The potency and efficacy data for these compounds were used to calculate their activity scores using the following formula: Activity Score = normalized Emax × pEC50. Normalized Emax represents the efficacy of the compound as a fractional response relative to that of the CCK control ligand. pEC50 represents the positive logarithmic value of compound EC50 concentrations in (M).
# CCK1R [3] = target: T2, CCK1R; test: IP-One accumulation TR-FRET assay, agonist format, HEK-293 CCK1R cells; design: expressed in transfected cells; host or cells: HEK-293; conditions: for Emax: HEK293, relative to CCK control, read-out: CCK1R Ago (IP-One) Emax; for Emax / EC50: average ± SD; for EC50: read-out: CCK1R Ago (IP-One) EC50
# Description: as §1, §2
# T1 sequence (P30518 whole entry): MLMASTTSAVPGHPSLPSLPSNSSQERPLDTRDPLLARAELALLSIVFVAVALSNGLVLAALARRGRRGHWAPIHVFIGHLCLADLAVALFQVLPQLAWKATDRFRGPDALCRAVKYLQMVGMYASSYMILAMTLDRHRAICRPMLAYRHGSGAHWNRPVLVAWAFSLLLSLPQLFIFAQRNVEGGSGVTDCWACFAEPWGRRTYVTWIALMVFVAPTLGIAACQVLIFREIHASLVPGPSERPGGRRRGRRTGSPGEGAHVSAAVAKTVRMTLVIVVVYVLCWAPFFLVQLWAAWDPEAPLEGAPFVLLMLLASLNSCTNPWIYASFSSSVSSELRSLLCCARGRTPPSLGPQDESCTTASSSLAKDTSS
Compound,AVP2R PAM (cAMP) Score (activity score = normalized Emax × pEC50) ([1]; PAM format),EC50 [1] [µM],Emax [1] [%],Emax (CCK1R [2]) [%],CCK1R PAM (IP-One) Score (activity score = normalized Emax × pEC50) (CCK1R [2]),EC50 (CCK1R [2]) [µM],CCK1R Ago (IP-One) Score (activity score = normalized Emax × pEC50) (CCK1R [3]),CCK1R IP-One activity (in words) (CCK1R [2]),Emax (CCK1R [3]) [%],EC50 (CCK1R [3]) [µM],AVP2R cAMP response (in words) ([1]; PAM format)
CC(C)Cc1nc2sc3c(NCCN4CCOCC4)ncnc3c2c2c1CCCC2 [CMP-34],2.13,7.8 ± 4,42 ± 17,34 ± 13,1.50,29 ± 13.1,0,–,–,–,–
COCCNc1ncnc2c1sc1nc(N3CCOCC3)c3c(c12)CCCC3 [CMP-47],0,–,0,0,0,–,0,None of these analogs showed any CCK1R activity,0,–,–
CN(C)CCNc1ncnc2c1sc1nc(N3CCOCC3)c3c(c12)CCCC3 [CMP-4],1.2,12.8 ± 14,24.5 ± 7.1,62 ± 33,2.71,14.4 ± 1.5,0,–,0,–,–
O=C(CSc1ncnc2c1sc1nc(N3CCOCC3)c3c(c12)CCCC3)Nc1ccc(Br)cc1 [CMP-41],0,–,0,0,0,–,0,–,0,–,–
CCCc1nc2oc3c(N4CCN(CCO)CC4)ncnc3c2c2c1CCCC2 [CMP-30],1.52,5.9 ± 3.8,29,36 ± 16,1.55,27.1 ± 10.7,0,–,–,–,–
CCN(CC)CCNc1ncnc2c1oc1nc(CC(C)C)c3c(c12)CCC3 [CMP-33],1.60,21 ± 6.5,34 ± 1,35 ± 19,1.51,18.8 ± 7.7,0,–,–,–,–
NNc1ncnc2c1sc1nc(N3CCOCC3)c3c(c12)CCCC3 [CMP-51],0,–,0,0,0,–,0,significantly diminished responses,0,–,–
CN1CCN(c2ncnc3c2sc2nc(N4CCCCC4)c4c(c23)CCCC4)CC1 [CMP-31],1.26,5.4 ± 1.7,24 ± 3,35 ± 14,1.5 and 1.54,29.6 ± 1.8,0,–,0,–,–
CCN(CC)CCNc1ncnc2c1sc1nc(-c3ccccc3)c3c(c12)CCCC3 [CMP-11],2.4 and 2.44,3.2 ± 1.1,44 ± 8,45 ± 6,2.3 and 2.27,9.1 ± 4.8,1.0 and 0.96,–,21 ± 2,27.1 ± 15.3,–
CCCCc1nc2sc3c(NCCN4CCOCC4)ncnc3c2c2c1CCCC2 [CMP-32],1.67,9.3 ± 11.1,33 ± 26,41 ± 34,1.52,23.9 ± 25.8,0,–,–,–,–
CN(C)CCNc1ncnc2c1sc1nc(-c3ccccc3)c3c(c12)CCCC3 [CMP-14],3.0 and 2.97,4.7 ± 4.1,56 ± 33,44 ± 10,2.17,8.9 ± 1.7,0.72,–,17 ± 5,29.7 ± 8,–
C=CCNc1ncnc2c1sc1nc(N3CCOCC3)c3c(c12)CCCC3 [CMP-50],0,–,0,0,0,–,0,None of these analogs showed any CCK1R activity,0,–,–
CCCc1nc2sc3c(NCCN4CCOCC4)ncnc3c2c2c1CCCC2 [CMP-8],2.3 and 2.31,15.7 ± 8.4,48 ± 12,53 ± 1,2.34,37.8 ± 3.9,0,–,–,–,–
O=C(CSc1ncnc2c1sc1nc(N3CCOCC3)c3c(c12)CCCC3)NCc1ccco1 [CMP-65],4.78,10 ± 1.7,96 ± 5,0,0,–,0,–,0,–,strong activation of AVP2R-mediated cAMP accumulation
CN(C)CCNc1nnnc2c1sc1nc(N3CCCCC3)c3c(c12)CCCC3 [CMP-27],3.5 and 3.51,9.1 ± 1,70 ± 4,38 ± 14,1.7,18.4 ± 8.1,0,–,0,–,–
